Reference: PMC3102069, “Charge Isomers of Myelin Basic Protein: Structure and Interactions with Membranes, Nucleotide Analogues, and Calmodulin” (PLoS ONE, 2011)

Target: T1, rmC1 (recombinant murine 18.5-kDa myelin basic protein, C1 charge component); rmC8 is its six-fold Gln variant (Mus musculus, UniProt P04370)
T1 construct: gene Mbp
Assay: fluorescence, FRET from Trp to mant (ex […] nm, em […] nm)
Assay type: binding
Settings: 0.25 µM rmC1, 0.5-12.5 µM nucleotide, 10 mM HEPES pH 7.5; labelled compound

T1 sequence (P04370 1-169 isoform P04370-5 limits assumed): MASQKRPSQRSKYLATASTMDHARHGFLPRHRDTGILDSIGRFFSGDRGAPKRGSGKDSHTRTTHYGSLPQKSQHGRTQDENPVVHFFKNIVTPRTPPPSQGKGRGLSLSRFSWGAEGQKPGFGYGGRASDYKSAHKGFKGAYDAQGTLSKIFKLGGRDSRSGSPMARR

CNc1ccccc1C(=O)O[C@H]1[C@@H](O)[C@H](n2cnc3c(N)ncnc32)O[C@@H]1COP(=O)(O)OP(=O)(O)OP(=O)(O)O [mant-ATP] was tested, and the “fluorescence, FRET from Trp to mant (ex 280 nm, em 448 nm)” value was “while both mant-ATP and mant-GTP bound to rmC1, mant-AMP did not”.
